Source: ChEMBL document CHEMBL4680219, “Structure-thermodynamics-relationships of hepatitis C viral NS3 protease inhibitors” (Eur J Med Chem, 2020)

Tests used:
[1] = Binding affinity to HCV NS3/4a protease by isothermal titration calorimetry; set-up: species or system Hepacivirus hominis
[2] = Inhibition of HCV NS3/4a protease using biotin-DDIVPCSMSY[125I]TW as substrate by radiometric assay; set-up: species or system Hepacivirus hominis

| SMILES | Kd [1] [nM] | Ki [2] [nM] |
| --- | --- | --- |
| C=CC1C[C@@]1(NC(=O)[C@@H]1C[C@@H](Oc2cc(-c3ccccc3)nc3ccccc23)CN1C(=O)[C@H](C)NC(=O)OC(C)(C)C)C(=O)O (some centres undefined) | 2630 |  |
| C=CC1C[C@@]1(NC(=O)[C@@H]1C[C@@H](Oc2cc(-c3ccccc3)nc3ccccc23)CN1C(=O)[C@H](CC)NC(=O)OC(C)(C)C)C(=O)O (some centres undefined) | 900 |  |
| C=CC1C[C@@]1(NC(=O)[C@@H]1C[C@@H](Oc2cc(-c3ccccc3)nc3ccccc23)CN1C(=O)CNC(=O)OC(C)(C)C)C(=O)O (some centres undefined) | 77000 |  |
| C=CC1C[C@@]1(NC(=O)[C@@H]1C[C@@H](Oc2ccnc3cc(OC)ccc23)CN1C(=O)[C@@H](NC(=O)OC(C)(C)C)C(C)(C)C)C(=O)O (some centres undefined) | 180 | 50 |
| C=CC1C[C@@]1(NC(=O)[C@@H]1C[C@@H](Oc2cc(-c3ccccc3)nc3ccccc23)CN1C(=O)[C@@H](NC(=O)OC(C)(C)C)C(C)C)C(=O)O (some centres undefined) | 250 |  |

Second part, the compound after the results:

| Kd [1] [nM] | Ki [2] [nM] | SMILES |
| --- | --- | --- |
| 100 |  | C=CC1C[C@@]1(NC(=O)[C@@H]1C[C@@H](Oc2cc(-c3ccccc3)nc3ccccc23)CN1C(=O)[C@@H](NC(=O)OC(C)(C)C)C(C)(C)C)C(=O)O (some centres undefined) |
| 830 |  | C=CC1C[C@@]1(NC(=O)[C@@H]1C[C@@H](Oc2ccnc(-c3ccccc3)c2)CN1C(=O)[C@@H](NC(=O)OC(C)(C)C)C(C)(C)C)C(=O)O (some centres undefined) |
| 13500 | 29000 | C=CC1C[C@@]1(NC(=O)[C@@H]1C[C@@H](Oc2ccncc2)CN1C(=O)[C@@H](NC(=O)OC(C)(C)C)C(C)(C)C)C(=O)O (some centres undefined) |
| 19 | 20 | C=CC1C[C@@]1(NC(=O)[C@@H]1C[C@@H](Oc2cc(-c3ccccc3)nc3cc(OC)ccc23)CN1C(=O)[C@@H](NC(=O)OC(C)(C)C)C(C)(C)C)C(=O)O (some centres undefined) |
| 190 | 140 | C=CC1C[C@@]1(NC(=O)[C@@H]1C[C@@H](Oc2ccnc3ccccc23)CN1C(=O)[C@@H](NC(=O)OC(C)(C)C)C(C)(C)C)C(=O)O (some centres undefined) |
